Where “and” joins values, the source holds several entries; their conditions need not be identical. Identical values can stand only once. Each block holds one molecule with its values, some of them ahead of it.
Key:
CAL-120 [1] = conditions: 72 h
Method in brief: (§1)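 Breast cancer cell lines (20 µl suspension) were seeded into 384-well plates holding compound at 5 concentrations in 10-fold steps over a compound-specific 10,000-fold range, then incubated 72 h. Cell death was read first by CellTox Green fluorescence (485/520 nm), then viability by CellTiter-Glo luminescence after 10 min at room temperature. Each plate was normalised to 0.1 % DMSO and a positive kill control. EC50 was fitted from the dose-response curves and censored at the top concentration.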

MDA-MB-468 [2] = conditions: 72 h
Method in brief: as §1

BT-474 [3] = conditions: 72 h
Method in brief: as §1

BT-549 [4] = conditions: 72 h
Method in brief: as §1

CAL-85-1 [5] = conditions: 72 h
Method in brief: as §1

MDA-MB-453 [6] = conditions: 72 h
Method in brief: as §1

MDA-MB-436 [7] = conditions: 72 h
Method in brief: as §1

SK-BR-3 [8] = conditions: 72 h
Method in brief: as §1

Hs578T [9] = conditions: 72 h
Method in brief: as §1

CAL-51 [10] = conditions: 72 h
Method in brief: as §1

HCC1937 [11] = conditions: 72 h
Method in brief: as §1

MDA-MB-436 [12] = assay: normalised viability (% of control), CellTiter-Blue; higher = more viable cells (100 = DMSO, 0 = benzethonium chloride kill control); conditions: incubation time: 72 h
Method: (§2)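 DSRT, CellTiter-Blue viability, 72 h incubation. Signal is normalised to DMSO and benzethonium chloride controls. Value is the normalised response at dose 1.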

Hs578T [13] = assay: as above; conditions: incubation time: 72 h
Method: as §2

CAL-120 [14] = assay: normalised viability (% of control), CellTiter-Blue; higher = more viable cells (about 100 = DMSO control); conditions: incubation time: 72 h
Method in brief: (§3)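 Each entry is normalised viability at a single listed concentration within a series. It comes from breast cancer cell lines incubated 72 h with compound in 384-well plates, then measured with CellTiter-Blue fluorescence at 560/590 nm. Every plate was normalised between vehicle (100) and a positive kill control (0).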

MDA-MB-468 [15] = assay: as above; conditions: incubation time: 72 h
Method in brief: as §3

HDQ-P1 [16] = assay: as above; conditions: incubation time: 72 h
Method in brief: as §3

DU-4475 = assay: as above; conditions: incubation time: 72 h
Method in brief: as §3

HCC1599 = assay: as above; conditions: incubation time: 72 h
Method in brief: as §3

BT-474 [17] = assay: as above; conditions: incubation time: 72 h
Method in brief: as §3

BT-549 [18] = assay: as above; conditions: incubation time: 72 h
Method in brief: as §3

CAL-85-1 [19] = assay: as above; conditions: incubation time: 72 h
Method in brief: as §3

MDA-MB-453 [20] = assay: as above; conditions: incubation time: 72 h
Method in brief: as §3

MDA-MB-436 [21] = assay: as above; conditions: incubation time: 72 h
Method in brief: as §3

SK-BR-3 [22] = assay: as above; conditions: incubation time: 72 h
Method in brief: as §3

Hs578T [23] = assay: as above; conditions: incubation time: 72 h
Method in brief: as §3

CAL-148 [24] = assay: as above; conditions: incubation time: 72 h
Method in brief: as §3

MFM-223 = assay: as above; conditions: incubation time: 72 h
Method in brief: as §3

CAL-51 [25] = assay: as above; conditions: incubation time: 72 h
Method in brief: as §3

HCC1937 [26] = assay: as above; conditions: incubation time: 72 h
Method in brief: as §3

HDQ-P1 [27] = assay: as above; conditions: incubation time: 72 h; remark: listed apart in the source
Method in brief: as §3

BT-474 [28] = assay: as above; conditions: incubation time: 72 h; remark: listed apart in the source
Method in brief: as §3

MDA-MB-231 [29] = assay: as above; conditions: incubation time: 72 h
Method in brief: as §3

MDA-MB-436 [30] = assay: as above; conditions: incubation time: 72 h; remark: listed apart in the source
Method in brief: as §3

CAL-148 [31] = assay: as above; conditions: incubation time: 72 h; remark: listed apart in the source
Method in brief: as §3

MDA-MB-231 [32] = assay: as above; conditions: 10 nM; incubation time: 72 h
Method in brief: as §3

HCC1143 = assay: as above; conditions: 10 nM; incubation time: 72 h
Method in brief: as §3

EC50, CellTiter-Glo (MDA-MB-468 [2]): 0.13 nM
EC50, CellTiter-Glo (BT-474 [3]): 4.76 nM
EC50, CellTiter-Glo (BT-549 [4]): 0.13 nM
EC50, CellTiter-Glo (MDA-MB-453 [6]): 1.65 nM
EC50, CellTiter-Glo (MDA-MB-436 [7]): 0.76 nM
EC50, CellTiter-Glo (SK-BR-3 [8]): 0.49 nM
EC50, CellTiter-Glo (HCC1937 [11]): 0.24 nM
Structure (SMILES): CO[C@H]1C[C@@H]2CC[C@@H](C)[C@@](O)(O2)C(=O)C(=O)N2CCCC[C@H]2C(=O)O[C@H]([C@H](C)C[C@@H]2CC[C@@H](OCCO)[C@H](OC)C2)CC(=O)[C@H](C)/C=C(\C)[C@@H](O)[C@@H](OC)C(=O)[C@H](C)C[C@H](C)/C=C/C=C/C=C/1C [Everolimus]
EC50, CellTiter-Glo (CAL-120 [1]): 0.67 nM
EC50, CellTiter-Glo (CAL-85-1 [5]): 0.22 nM
EC50, CellTiter-Glo (Hs578T [9]): 0.18 nM
EC50, CellTiter-Glo (CAL-51 [10]): 0.67 nM
normalised viability (MDA-MB-436 [12]; 0.1 nM): 104% and 86.3%
normalised viability (Hs578T [13]; 0.1 nM): 58.9% and 73.8%
normalised viability (CAL-120 [14]; 1 nM): 59.3% and 51.9%
normalised viability (MDA-MB-468 [15]; 1 nM): 72% and 74.4%
normalised viability (HDQ-P1 [16]; 0.3 nM): 84.7% and 79.8%
normalised viability (DU-4475; 0.3 nM): 86.3% and 104%
normalised viability (HCC1599; 1 nM): 107% and 111%
normalised viability (BT-474 [17]; 1 nM): 76.6% and 65.5%
normalised viability (BT-549 [18]; 1 nM): 64.4% and 54.3%
normalised viability (CAL-85-1 [19]; 0.3 nM): 73.8% and 72%
normalised viability (MDA-MB-453 [20]; 0.3 nM): 71.9% and 70%
normalised viability (MDA-MB-436 [21]; 1 nM): 87.7% and 75.2%
normalised viability (SK-BR-3 [22]; 1 nM): 80.9% and 64.3%
normalised viability (Hs578T [23]; 1 nM): 61% and 59.5%
normalised viability (CAL-148 [24]; 0.3 nM): 77.8% and 72.2%
normalised viability (MFM-223; 1 nM): 55.5% and 51.7%
normalised viability (CAL-51 [25]; 0.3 nM): 89.6% and 89.8%
normalised viability (HCC1937 [26]; 1 nM): 52.2% and 56.6%
normalised viability (HDQ-P1 [27]; 10 nM): 79.4% and 60.5%
normalised viability (BT-474 [28]; 1000 nM): 65% and 59.1%
normalised viability (MDA-MB-231 [29]; 1000 nM): 73.9% and 77.5%
normalised viability (MDA-MB-436 [30]; 1000 nM): 93.8% and 71.5%
normalised viability (CAL-148 [31]; 10 nM): 44.4% and 37.9%

Structure (SMILES): CC(C)(C#N)c1cc(Cn2cncn2)cc(C(C)(C)C#N)c1 [Anastrozole]
normalised viability (MDA-MB-436 [12]; 1 nM): 99%
normalised viability (Hs578T [13]; 1 nM): 97.2%
normalised viability (CAL-120 [14]; 10 nM): 84.3%
normalised viability (MDA-MB-468 [15]; 10 nM): 102%
normalised viability (HDQ-P1 [16]; 3 nM): 102%
normalised viability (DU-4475; 3 nM): 106%
normalised viability (HCC1599; 10 nM): 98%
normalised viability (BT-474 [17]; 10 nM): 110%
normalised viability (BT-549 [18]; 10 nM): 94%
normalised viability (MDA-MB-231 [32]): 96.3%
normalised viability (CAL-85-1 [19]; 3 nM): 93.4%
normalised viability (HCC1143): 73.5%
normalised viability (MDA-MB-453 [20]; 3 nM): 104%
normalised viability (MDA-MB-436 [21]; 10 nM): 109%
normalised viability (SK-BR-3 [22]; 10 nM): 95.1%
normalised viability (Hs578T [23]; 10 nM): 99.4%
normalised viability (CAL-148 [24]; 3 nM): 93.3%
normalised viability (MFM-223; 10 nM): 96.9%
normalised viability (CAL-51 [25]; 3 nM): 112%
normalised viability (HCC1937 [26]; 10 nM): 90.3%
normalised viability (HDQ-P1 [27]; 100 nM): 91.8%
normalised viability (BT-474 [28]; 10000 nM): 122%
normalised viability (MDA-MB-231 [29]; 10000 nM): 106%
normalised viability (MDA-MB-436 [30]; 10000 nM): 97.1%
normalised viability (CAL-148 [31]; 100 nM): 98.1%
